We go through six compounds from ChEMBL document CHEMBL1146474, “Design, synthesis, and bioactivities of steroid-linked taxol analogues as potential targeted drugs for prostate and breast cancer” (J Nat Prod, 2004).

In test [1] the test system is A2780. As to the kind of experiment: cells. As to conditions: Homo sapiens, A2780, 48 h.
The test system of test [2] is MDA-MB-231. Description: cells. As to conditions: Homo sapiens, MDA-MB-231, 48 h.
A short description of test [3]: Induction of tubulin assembly at 0.2 uM relative to taxol.
For test [4], the system named is PC-3. As to the kind of experiment: cells. As to conditions: Homo sapiens, PC-3, 48 h.
Test [5] relates to MDA-MB-231. Description: Antiproliferative activity against human MDA-MB-231 cells assessed as inhibition of cell survival after 48 hrs by MTS method. The format is functional.
Test [6] relates to MCF7. As to the kind of experiment: cells. As to conditions: Homo sapiens, MCF7, 48 h.
Test [7] is described as follows: Induction of tubulin assembly at 1 uM relative to taxol.
Test [8] relates to MCF7. Description: Antiproliferative activity against human MCF7 cells assessed as reduction of cell survival after 48 hrs by MTS method. The format is functional. On the technique in general: Tetrazolium assays rely on reduction of a dye to a coloured formazan, in cell work by metabolically active cells.
Test [9] relates to MCF7. Description: Antiproliferative activity against human MCF7 cells assessed as reduction of cell survival after 7 days by MTS method. Format: functional.

pIC50: −log10 of the molar value.

Usually pIC50 stands for −log10 of the IC50, conventionally taken in molar units. In the case of `CC(=O)O[C@H]1C(=O)[C@]2(C)[C@@H](OC(=O)CCC(=O)O[C@@H]3C[C@]4(C)[C@@H](O)CC[C@H]4[C@@H]4CCc5cc(O)ccc5[C@H]43)C[C@H]3OC[C@@]3(OC(C)=O)[C@H]2[C@H](OC(=O)c2ccccc2)[C@]2(O)C[C@H](OC(=O)[C@H](O)[C@@H](NC(=O)c3ccccc3)c3ccccc3)C(C)=C1C2(C)C`, the negative-log IC50 (pIC50) was 5.54 in test [1], 6.11 in test [2], 6.49 in [4] and 6.25 in test [6]. For the same compound, the Activity worked out at 100% in test [3], 100% in [7], 20% in [8] and 70% in [9]. In [5], the “inhibition (INH)” value is 85%.
On to `CC(=O)O[C@H]1C(=O)[C@]2(C)[C@@H](OC(=O)/C=C/C[C@@H]3C[C@H]4[C@@H]5CCc6cc(O)ccc6[C@H]5CC[C@]4(C)[C@H]3O)C[C@H]3OC[C@@]3(OC(C)=O)[C@H]2[C@H](OC(=O)c2ccccc2)[C@]2(O)C[C@H](OC(=O)[C@H](O)[C@@H](NC(=O)c3ccccc3)c3ccccc3)C(C)=C1C2(C)C`, for which the pIC50 was 5.08 in test [1], 5.66 in test [2], 6.92 in test [4] and 5.80 in test [6]. Further, the Activity in [3] and in test [7] was 100% in each case.
As to `CC(=O)O[C@H]1C(=O)[C@@]2(C)[C@H]([C@H](OC(=O)c3ccccc3)[C@]3(O)C[C@H](OC(=O)[C@H](OC(=O)CCC(=O)O[C@@H]4C[C@]5(C)[C@@H](O)CC[C@H]5[C@@H]5CCc6cc(O)ccc6[C@H]54)[C@@H](NC(=O)c4ccccc4)c4ccccc4)C(C)=C1C3(C)C)[C@]1(OC(C)=O)CO[C@@H]1C[C@@H]2O`, the Activity in test [3] and in test [7] was 60% each time.
As for `CC(=O)O[C@@]12CO[C@@H]1C[C@H](O)[C@@]1(C)C(=O)[C@H](OC(=O)CCC(=O)O[C@@H]3C[C@]4(C)[C@@H](O)CC[C@H]4[C@@H]4CCc5cc(O)ccc5[C@H]43)C3=C(C)[C@@H](OC(=O)[C@H](O)[C@@H](NC(=O)c4ccccc4)c4ccccc4)C[C@@](O)([C@@H](OC(=O)c4ccccc4)[C@H]21)C3(C)C`, the pIC50 is 5.72 in test [1], 6.52 in [2], 7.17 in [4] and 6.99 in [6]. Further, the Activity in test [3] and in [7] was 100% in each case.
Consider `CC(=O)O[C@H]1C(=O)[C@@]2(C)[C@H]([C@H](OC(=O)c3ccccc3)[C@]3(O)C[C@H](OC(=O)[C@H](O)[C@@H](NC(=O)c4ccccc4)c4ccccc4)C(C)=C1C3(C)C)[C@]1(OC(C)=O)CO[C@@H]1C[C@@H]2O` [PACLITAXEL], for which the “inhibition (INH)” value in test [5] amounted to 85%. Also, the Activity in test [8] is reported as 20%; in [9], 70%.
Consider `CC(=O)O[C@H]1C(=O)[C@@]2(C)[C@H]([C@H](OC(=O)c3ccccc3)[C@]3(O)C[C@H](OC(=O)[C@H](OC(=O)/C=C/C[C@@H]4C[C@H]5[C@@H]6CCc7cc(O)ccc7[C@H]6CC[C@]5(C)[C@H]4O)[C@@H](NC(=O)c4ccccc4)c4ccccc4)C(C)=C1C3(C)C)[C@]1(OC(C)=O)CO[C@@H]1C[C@@H]2O`, for which the Activity was 45% in test [3] and 55% in test [7].
